Results from patent US8772029B2, “Modulation of oocyte meiotic progression and oocyte activation” (Northwestern University, priority 2011, dated 2014).
Entries after “also recorded” stand apart in the source; their conditions may differ.

Columns and labels:
[1] = tested on: MAPK; experiment: Myelin basic protein (MBP) kinase assay on single eggs (MAPK activity); assay type: cell-based, mouse; details: in vivo ovulated MII eggs, KSOM with 10 μM TPEN, 1 to 8 hours
Experimental: Histone H1 and myelin basic protein (MBP) dual kinase assays were performed as previously described (Svoboda et al., 2000). Dried gels were exposed to Kodak BIOMAX MR films for 12 to 72 hours at −80° C. using Kodak intensifying screens; films were developed, scanned, and analyzed using ImageJ software. Assays were performed on single oocytes, and densitometric analysis is expressed relative to levels in control eggs.

[2] = biological target: T1, Emi2 (Mus musculus, UniProt Q8CDI2); experiment: MI arrest induced by Emi2 cRNA injected into GV oocytes, IVM with or without TPEN; assay type: cell-based; details: IVM medium with 10 μM TPEN 14 h
T1 construct: expressed in transfected cells; host or cells: mouse oocytes microinjected with in vitro transcribed cRNA (pIVT vector)
T1 sequence (Q8CDI2 1-640): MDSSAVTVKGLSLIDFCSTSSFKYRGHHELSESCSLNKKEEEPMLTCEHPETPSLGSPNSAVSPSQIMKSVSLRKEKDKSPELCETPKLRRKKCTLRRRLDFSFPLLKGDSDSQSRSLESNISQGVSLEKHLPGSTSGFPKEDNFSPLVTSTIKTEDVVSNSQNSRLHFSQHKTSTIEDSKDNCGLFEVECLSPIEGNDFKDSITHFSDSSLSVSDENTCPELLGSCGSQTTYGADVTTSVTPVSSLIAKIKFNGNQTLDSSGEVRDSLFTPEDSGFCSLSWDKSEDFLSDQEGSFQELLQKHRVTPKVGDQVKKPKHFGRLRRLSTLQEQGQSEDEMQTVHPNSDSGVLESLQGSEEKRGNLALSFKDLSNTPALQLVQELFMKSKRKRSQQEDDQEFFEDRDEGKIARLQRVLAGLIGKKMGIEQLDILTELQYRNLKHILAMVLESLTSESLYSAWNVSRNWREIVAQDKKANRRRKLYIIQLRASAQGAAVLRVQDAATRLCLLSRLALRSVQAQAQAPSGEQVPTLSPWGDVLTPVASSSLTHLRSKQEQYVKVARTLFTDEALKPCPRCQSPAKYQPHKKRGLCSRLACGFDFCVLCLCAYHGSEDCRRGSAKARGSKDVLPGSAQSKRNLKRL
Experimental: Oocytes were denuded of cumulus cells and fixed in a microtubule stabilizing buffer (Ibanez et al., 2005) containing 2% formaldehyde and 1% Triton X-100 for 30 min at 37° C. Oocytes were washed and blocked in PBS containing 0.1M glycine, 3mg/mL BSA, 0.01% Tween 20, and 0.01% sodium azide for at least 1 h and were stored in blocking solution at 4° C. for up to 2 weeks. Oocytes were incubated with anti-tubulin antibody (1:100) for 1 h at 37C. followed by three washes in blocking solution. They were then incubated for 1 h in AlexaFluor-488 conjugated anti-mouse secondary antibody (5μg/mL) and rhodamine-phalloidin (2U/mL), washed three additional times, and mounted in VECTASHIELD with DAPI. Microscopy was performed using a Leica SP5 inverted laser-scanning confocal microscope with a 63x oil immersion objective (Leica Microsystems, Heidelberg, Germany). Images were processed using LAS AF software (Leica Microsystems).
Microinjection was performed essentially as previously described (Bernhardt et al., 2010). GV intact oocytes were collected and manually denuded of cumulus cells in L-15/FBS containing 0.2 mM IBMX, then transferred to drops of L-15 medium containing 0.05% (w/v) polyvinyl alcohol (PVA) and 0.5% (v/v) penicillin-streptomycin (Invitrogen) under light mineral oil on a heated stage for injection. […]

[3] = tested on: MII eggs; experiment: Activation of in vivo ovulated MII eggs (SrCl2, TPEN, ZnPT pre-treatment)
Experimental: Ovulated MII eggs were collected as described above. Eggs were transferred to KSOM medium with or without 10 μM ZnPT (1:1000 dilution of a 10 mM stock in DMSO) for exactly 5 minutes. Eggs were then washed in KSOM and allowed to recover for 10-15 minutes prior to activation. For SrCl2 activation, eggs were transferred to drops of calcium-free KSOM containing 10 mM SrCl2 for 2 hours, followed by 4 additional hours of culture in calcium-containing KSOM without SrCl2. TPEN activation was performed as previously described (Kim et al., 2011); eggs were cultured for 6 hours in KSOM containing 10 μM TPEN. Unactivated controls were cultured in KSOM for the same 6 hour time period to assess levels of spontaneous parthenogenesis.
MII eggs were treated with the ionophore zinc pyrithione (ZnPT) for 5 minutes to increase intracellular zinc. Following a 10-15 minute recovery period, eggs were then treated with activating agents SrCl2 or TPEN.

[4] = tested on: MII eggs; details: literature (Kim et al 2011, Suzuki et al 2010); cited from earlier work

MAPK activity (MBP kinase) in MII eggs [1]: did not change appreciably
oocytes arrested at MI [2]: 44%
Structure (SMILES): c1ccc(CN(CCN(Cc2ccccn2)Cc2ccccn2)Cc2ccccn2)nc1 [TPEN, N,N,N′,N′-tetrakis(2-pyridylmethyl)ethylenediamine]
egg activation by TPEN after ZnPT pre-treatment ([3]; MII eggs, 10 μM ZnPT 5 minutes, then 10 μM TPEN 6 h): caused activation
egg activation (second polar body and PN or PN-like structures) ([3]; control MII eggs, by 6 hours post activation, 10 mM SrCl2 2 h or 10 μM TPEN 6 h): activated normally
activation of MII-arrested eggs by zinc sequestration with TPEN [4]: causes egg activation and resumption of cell cycle; also recorded: induce egg activation and embryo development
